Measurements as given in publication PMC11130653, “Development of a rapid HPLC-fluorescence method for monitoring warfarin metabolites formation: In vitro studies for evaluating the effect of piperine on warfarin metabolism and plasma coagulation” (Heliyon, 2024).

Target: T1, CYP2C9 (Homo sapiens, UniProt P11712)
T1 construct: human liver microsomes
Assay: inhibition of S-warfarin 7-hydroxylation (CYP2C9 marker) in human liver microsomes, HPLC-FLD
Format: biochemical

T1 sequence (P11712 whole entry): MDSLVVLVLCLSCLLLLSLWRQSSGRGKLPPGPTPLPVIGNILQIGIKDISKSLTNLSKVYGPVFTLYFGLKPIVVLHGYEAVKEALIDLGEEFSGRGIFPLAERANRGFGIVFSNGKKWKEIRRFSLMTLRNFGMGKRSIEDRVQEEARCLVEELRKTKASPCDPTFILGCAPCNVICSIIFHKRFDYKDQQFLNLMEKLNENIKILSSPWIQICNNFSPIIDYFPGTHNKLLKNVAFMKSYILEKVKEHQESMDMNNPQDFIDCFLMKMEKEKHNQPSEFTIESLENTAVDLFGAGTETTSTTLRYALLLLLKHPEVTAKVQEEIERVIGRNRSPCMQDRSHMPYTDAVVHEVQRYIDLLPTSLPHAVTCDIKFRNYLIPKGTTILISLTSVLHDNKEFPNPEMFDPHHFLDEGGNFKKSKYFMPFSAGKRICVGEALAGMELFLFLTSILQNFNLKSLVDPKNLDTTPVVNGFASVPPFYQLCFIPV

Compound: O=C(/C=C/C=C/c1ccc2c(c1)OCO2)N1CCCCC1 [piperine]
- IC50: 14.2 ± 1.1 µM
